# According to US20020137929A1, “1 - (3-heterocyclylphenyl) isothiourea, -isourea, -guanidine and -amidine herbicidal agents” (Intellectual Property Department, BASF Aktiengesellschaft, priority 1998, published 2002):
# Assays:
# CASOB (Sicklepod) = experiment: Postemergence herbicidal evaluation; type: in vivo, Cassia obtusifolia; conditions: postemergence
# Outline: (§1)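 First, seedlings were raised for around two weeks. Next, test material in 50/50 acetone/water containing 0.5% TWEEN 20 was sprayed through a nozzle at 40 psi, equivalent to about 0.0156–0.500 kg/ha. Finally, after 4–5 weeks in the greenhouse, plants were rated 0–9.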
# [1] = test system: CHEAL (Lambsquarters, Common); experiment: Postemergence herbicidal evaluation; type: in vivo, Chenopodium album; conditions: postemergence
# Outline: as §1
# ECHCG (Barnyardgrass) = experiment: Postemergence herbicidal evaluation; type: in vivo, Echinochloa crus-galli; conditions: postemergence
# Outline: as §1
# ORYSAT (Rice, Tebonnet) [2] = experiment: Postemergence herbicidal evaluation; type: in vivo, Oryza sativa, (L.) Tebonnet; conditions: postemergence
# Outline: as §1
# GALAP (Galium) = experiment: Preemergence herbicidal evaluation; type: in vivo, Galium aparine; conditions: rated 4-5 weeks after treatment
# Outline: (§2)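 Each species is sown separately in potting soil over roughly an inch of soil before any emergence. The soil surface then receives an aqueous acetone spray delivering about 0.0156 to 0.500 kg/ha of compound. After four to five weeks, injury is scored from 0 to 9 relative to a control.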
# SETVI (Foxtail, Green) = experiment: Preemergence herbicidal evaluation; type: in vivo, Setaria viridis; conditions: rated 4-5 weeks after treatment
# Outline: as §2
# [3] = test system: GLXMAW (Soybean, Williams); experiment: Preemergence herbicidal evaluation; type: in vivo, Glycine max, (L.) Merr. cv Williams; conditions: rated 4-5 weeks after treatment
# Outline: as §2
# ORYSAT (Rice, Tebonnet) [4] = experiment: Preemergence herbicidal evaluation; type: in vivo, Oryza sativa, (L.) Tebonnet; conditions: rated 4-5 weeks after treatment
# Outline: as §2
# [5] = test system: TRZAWR (Wheat, Winter, cv Riband); experiment: Preemergence herbicidal evaluation; type: in vivo, Triticum aestivum; conditions: rated 4-5 weeks after treatment
# Outline: as §2
# ZEAMX (Corn, Field) = experiment: Preemergence herbicidal evaluation; type: in vivo, Zea mays; conditions: rated 4-5 weeks after treatment
# Outline: as §2
# CYPIR (Rice Flatsedge) = experiment: Preemergence weed control under flooded paddy conditions; type: in vivo, Cyperus iria; conditions: rated 3-4 weeks after treatment
# Outline: (§3)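 Ratings on a 0-9 visual scale cover stand, vigor, malformation, size, chlorosis and overall appearance relative to a control, taken three to four weeks post-treatment. Application was into flood water over freshly sown silt loam at roughly 0.0313 to 0.500 kg/ha.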
# [6] = test system: SAGPY (Arrowhead (Pygmaea)); experiment: as above; type: in vivo, Sagittaria pygmaea; conditions: rated 3-4 weeks after treatment
# Outline: as §3
# CYPSE (Flatsedge) = experiment: Postemergence weed control under flooded paddy conditions; type: in vivo, Cyperus serotinus; conditions: postemergence weeds, rated 3 to 4 weeks after treatment
# Text: Results of herbicide evaluation are expressed on a rating scale (0-9). The scale is based upon a visual observation of plant stand, vigor, malformation, size, chlorosis and overall plant appearance as compared with a control.
# Plastic containers containing weeds which are 3 to 5 cm tall and rice seedlings at the 1.5 to 2.5 leaf stage are flooded with water. The water is maintained at 1.5 to 3 cm above the soil surface for the duration of the experiment. Test compounds are applied as aqueous/ acetone mixtures 50/50 v/v directly into the flood water to provide the equivalent of about 0.0313 to 0.500 kg/ha of active ingredient. The treated containers are placed on greenhouse benches and cared for in accordance with conventional greenhouse procedures. Three to four weeks after treatment, the test is terminated and each container is examined and herbicidal effect rated according to the rating system provided in Example 37. The compounds evaluated are reported by compound number given in Example 37.
structure (smiles),measurement,setting,value
"COC(=O)C(Cc1ccc(Cl)cc1)N1C(=O)CSC1=Nc1cc(-n2c(=O)cc(C(F)(F)F)n(C)c2=O)c(F)cc1Cl (racemic) [Compound 77, Methyl α-(p-chlorobenzyl)-2-{{2-chloro-5-[3,6-dihydro-3-methyl-2,6-dioxo-4-(trifluoromethyl)-1(2H)-pyrimidinyl]-4-fluorophenyl}imino}-4-oxo-3-thiazolidineacetate, DL-]",CASOB herbicidal rating,CASOB (Sicklepod); rate 0.0158 kg/ha,1.0
same,CASOB herbicidal rating,CASOB (Sicklepod); rate 0.0315 kg/ha,1.0
same,CASOB herbicidal rating,CASOB (Sicklepod); rate 0.0630 kg/ha,1.0
same,CHEAL herbicidal rating,[1]; rate 0.0158 kg/ha,6.0
same,CHEAL herbicidal rating,[1]; rate 0.0315 kg/ha,9.0
same,CHEAL herbicidal rating,[1]; rate 0.0630 kg/ha,9.0
same,ECHCG herbicidal rating,ECHCG (Barnyardgrass); rate 0.0158 kg/ha,1.0
same,ECHCG herbicidal rating,ECHCG (Barnyardgrass); rate 0.0315 kg/ha,1.0
same,ECHCG herbicidal rating,ECHCG (Barnyardgrass); rate 0.0630 kg/ha,1.0
same,ORYSAT herbicidal rating,"ORYSAT (Rice, Tebonnet) [2]; rate 0.0158 kg/ha",2.0
same,ORYSAT herbicidal rating,"ORYSAT (Rice, Tebonnet) [2]; rate 0.0315 kg/ha",2.0
same,ORYSAT herbicidal rating,"ORYSAT (Rice, Tebonnet) [2]; rate 0.0630 kg/ha",3.0
same,Preemergence herbicidal rating GALAP,GALAP (Galium); rate 0.0156 kg/ha,0.0
same,Preemergence herbicidal rating GALAP,GALAP (Galium); rate 0.0313 kg/ha,0.0
same,Preemergence herbicidal rating GALAP,GALAP (Galium); rate 0.0625 kg/ha,0.0
same,Preemergence herbicidal rating GALAP,GALAP (Galium); rate 0.1250 kg/ha,1.0
same,Preemergence herbicidal rating GALAP,GALAP (Galium); rate 0.2500 kg/ha,1.0
same,Preemergence herbicidal rating SETVI,"SETVI (Foxtail, Green); rate 0.0156 kg/ha",0.0
same,Preemergence herbicidal rating SETVI,"SETVI (Foxtail, Green); rate 0.0313 kg/ha",0.0
same,Preemergence herbicidal rating SETVI,"SETVI (Foxtail, Green); rate 0.0625 kg/ha",0.0
same,Preemergence herbicidal rating SETVI,"SETVI (Foxtail, Green); rate 0.1250 kg/ha",0.0
same,Preemergence herbicidal rating SETVI,"SETVI (Foxtail, Green); rate 0.2500 kg/ha",9.0
same,Preemergence herbicidal rating GLXMAW,[3]; rate 0.0156 kg/ha,0.0
same,Preemergence herbicidal rating GLXMAW,[3]; rate 0.0313 kg/ha,0.0
same,Preemergence herbicidal rating GLXMAW,[3]; rate 0.0625 kg/ha,0.0
same,Preemergence herbicidal rating GLXMAW,[3]; rate 0.1250 kg/ha,0.0
same,Preemergence herbicidal rating GLXMAW,[3]; rate 0.2500 kg/ha,1.0
same,Preemergence herbicidal rating ORYSAT,"ORYSAT (Rice, Tebonnet) [4]; rate 0.0156 kg/ha",0.0
same,Preemergence herbicidal rating ORYSAT,"ORYSAT (Rice, Tebonnet) [4]; rate 0.0313 kg/ha",0.0
same,Preemergence herbicidal rating ORYSAT,"ORYSAT (Rice, Tebonnet) [4]; rate 0.0625 kg/ha",0.0
same,Preemergence herbicidal rating ORYSAT,"ORYSAT (Rice, Tebonnet) [4]; rate 0.1250 kg/ha",0.0
same,Preemergence herbicidal rating ORYSAT,"ORYSAT (Rice, Tebonnet) [4]; rate 0.2500 kg/ha",0.0
same,Preemergence herbicidal rating TRZAWR,[5]; rate 0.0156 kg/ha,0.0
same,Preemergence herbicidal rating TRZAWR,[5]; rate 0.0313 kg/ha,0.0
same,Preemergence herbicidal rating TRZAWR,[5]; rate 0.0625 kg/ha,0.0
same,Preemergence herbicidal rating TRZAWR,[5]; rate 0.1250 kg/ha,1.0
same,Preemergence herbicidal rating TRZAWR,[5]; rate 0.2500 kg/ha,0.0
same,Preemergence herbicidal rating ZEAMX,"ZEAMX (Corn, Field); rate 0.0156 kg/ha",2.0
same,Preemergence herbicidal rating ZEAMX,"ZEAMX (Corn, Field); rate 0.0313 kg/ha",0.0
same,Preemergence herbicidal rating ZEAMX,"ZEAMX (Corn, Field); rate 0.0625 kg/ha",0.0
same,Preemergence herbicidal rating ZEAMX,"ZEAMX (Corn, Field); rate 0.1250 kg/ha",0.0
same,Preemergence herbicidal rating ZEAMX,"ZEAMX (Corn, Field); rate 0.2500 kg/ha",1.0
same,CYPIR herbicidal effect rating,CYPIR (Rice Flatsedge); 0.0313 kg/ha,0.0
same,CYPIR herbicidal effect rating,CYPIR (Rice Flatsedge); 0.0625 kg/ha,0.0
same,CYPIR herbicidal effect rating,CYPIR (Rice Flatsedge); 0.1250 kg/ha,0.0
same,CYPIR herbicidal effect rating,CYPIR (Rice Flatsedge); 0.2500 kg/ha,0.0
same,SAGPY herbicidal effect rating,[6]; 0.0313 kg/ha,0.0
same,SAGPY herbicidal effect rating,[6]; 0.0625 kg/ha,0.0
same,SAGPY herbicidal effect rating,[6]; 0.1250 kg/ha,0.0
same,SAGPY herbicidal effect rating,[6]; 0.2500 kg/ha,0.0
same,Herbicidal rating CYPSE,CYPSE (Flatsedge); Rate 0.0313 kg/ha,0.0
same,Herbicidal rating CYPSE,CYPSE (Flatsedge); Rate 0.0625 kg/ha,0.0
same,Herbicidal rating CYPSE,CYPSE (Flatsedge); Rate 0.1250 kg/ha,0.0
same,Herbicidal rating CYPSE,CYPSE (Flatsedge); Rate 0.2500 kg/ha,4.0
